Measurements: patent publication US20110104177A1, “HISTONE DEACETYLASE INHIBITORS, COMBINATION THERAPIES AND METHODS OF USE” (THE JOHNS HOPKINS UNIVERSITY, priority 2006, published 2011)

Key:
[1] = tested on: SFRP1, SFRP2, MLH1, CRBP1, E-cadherin genes in RKO cells; test: RT-PCR re-expression of silenced tumor suppressor genes in RKO cells; assay type: cell-based, human; conditions: RKO cells; for SFRP1 RT-PCR specific band: doses of 20 and 50 μM, 24 or 48 hours
Protocol: To inhibit any residual SIRT1 protein, remaining RNAi-expressing cells were treated with 700 μM SPT and control samples were treated with DMSO for 24 hours. […] RKO cells were also treated with 0.5 μM Aza (24 hours), and samples were analyzed as described in FIG. 1A; RT-PCR was performed with intron-spanning primers specific for the two genes. GAPDH was also analyzed as a control. […] Control samples in which no reverse transcriptase was added were analyzed separately, and all were negative for amplification of the indicated genes. […] The level of TSG re-expression induced by Aza treatment or SIRT1 inhibition as described in FIG. 4(A) was compared to levels of expression in HCT116 cells in which the TSGs are basally expressed.
(§1) Cell culture and retroviral infection. MDA-MB-231, MCF7, HCT116, SW480 RKO, and Phoenix cells (ATCC, Rockville, Md., United States) were cultured in Dulbecco's modified Eagle's medium supplemented with 10% fetal bovine serum and 1% penicillin/streptomycin (Invitrogen, Carlsbad, Calif., United States). Retroviral infection was performed using either single or multiple rounds of infection. Briefly, Phoenix cells were transfected with either pBabe, pBabe-SIRT1H363Y, pSUPERretro, pSUPERretro-SIRT1-RNAi-1-3 (NM_012238 positions 410, 589, and 1091; Oligo Engine, Seattle, Wash., United States) using Lipofectamine 2000 (Invitrogen). After 48 h of transfection, the medium containing retrovirus was collected, filtered, and supplemented with Polybrene prior to infection of target cells (MDA-MB-231, MCF7, or HCT116). Infected cells were either harvested 24-48 hours later or subjected to selection with 2-3 μg/ml puromycin for a week prior to harvest and analysis.
(§2) RNA and protein preparation and analysis. Total RNA was extracted (Invitrogen) according to the manufacturer's instructions and subjected to reverse transcription followed by both quantitative real-time and semi-quantitative polymerase chain reaction. For quantitative real-time analyses, the QuantiTect SYBR Green PCR kit (Qiagen, Valencia, Calif., United States) was used and the amplification conditions consisted of an initial 10-minutes denaturation step at 95° C., followed by 40 cycles of denaturation at 95° C. for 15 s and annealing and extension for 30 seconds and 60 seconds, respectively. A BioRad iCycler was used (BioRad, Hercules, Calif., United States), and for quantitation the comparative cycle threshold (Ct) method was used, normalizing the Ct values for the indicated gene to the Ct values of GAPDH relative to a control sample. For conventional PCR, at least two independent sets of intron-spanning primers were used for the analysis of multiple genes, such as CRBP1, (NM_002899), E-cadherin, (L34545), SFRP1, (BC036503), SFRP2, (BC008666), and Gata-4 (L34357). For Western blots, cells stably expressing RNAi constructs were harvested in 50 mM Tris-HCl, 1% NP-40, 0.25% sodium deoxycholate, 150 mM NaCl, 50 mM sodium fluoride, 1 mM dithiothreitol, 1 mM AEBSF, 1× Complete protease inhibitor cocktail (Roche, Basel, Switzerland). Protein concentrations were measured by BCA (Pierce Biotechnology, Rockford, Ill., United States). […] On the same blot, β-actin (Sigma, St. Louis, Mo., United States) was probed to ensure equal loading.
(§3) The results from experiments performed in RKO cells are shown in FIG. 7 which presents RT-PCR results for SFRP1. […] The expression seemed stronger than for 300 μM splitomycin (Spt) or 20 mM nicotinamide (Nia) when these latter two drugs were used alone or in combination, but not as strong as the expression induced by 1 μM of the DNA demethylating agent, deoxy-aza-cytidine (Aza). […] Experiments were carried out as essentially described above.

SIRT1 [2] = target: T1, SIRT1 (Homo sapiens, UniProt Q96EB6); test: Activity against the SIRT1 enzyme / SIRT1 deacetylase activity; assay type: biochemical
T1 sequence (Q96EB6 1-747): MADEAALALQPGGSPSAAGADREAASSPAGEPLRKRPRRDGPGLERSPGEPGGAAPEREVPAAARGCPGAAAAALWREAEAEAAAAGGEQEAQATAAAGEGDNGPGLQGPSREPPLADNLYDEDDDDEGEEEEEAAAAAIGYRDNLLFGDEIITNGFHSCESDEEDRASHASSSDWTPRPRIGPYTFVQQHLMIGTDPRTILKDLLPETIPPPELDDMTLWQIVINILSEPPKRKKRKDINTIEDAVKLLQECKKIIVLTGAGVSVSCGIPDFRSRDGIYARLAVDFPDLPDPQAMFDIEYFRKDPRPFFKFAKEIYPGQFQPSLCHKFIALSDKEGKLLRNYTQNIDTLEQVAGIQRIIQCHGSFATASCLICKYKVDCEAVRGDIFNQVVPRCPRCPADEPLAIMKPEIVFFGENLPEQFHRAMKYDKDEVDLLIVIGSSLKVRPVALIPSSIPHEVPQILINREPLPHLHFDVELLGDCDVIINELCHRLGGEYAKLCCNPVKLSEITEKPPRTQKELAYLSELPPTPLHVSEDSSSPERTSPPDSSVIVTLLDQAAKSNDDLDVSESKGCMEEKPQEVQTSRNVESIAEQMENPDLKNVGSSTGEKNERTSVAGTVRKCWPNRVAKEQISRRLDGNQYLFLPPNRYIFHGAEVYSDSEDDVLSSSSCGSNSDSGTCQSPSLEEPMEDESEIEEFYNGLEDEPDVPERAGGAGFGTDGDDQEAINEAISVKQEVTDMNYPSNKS

[3] = tested on: SFRP1 and 2 genes in human breast cancer cells (line H231); test: Re-activation of SFRP1 and 2 genes in breast cancer cells (line H231); assay type: cell-based
Protocol: This has been accomplished for the SFRP1 and 2 genes in human breast cancer cells (line H231) and for SFRP1 in human colon cancer cells (line RKO).
as §3

[4] = tested on: SFRP1, SFRP2, E-cadherin, CRBP1 genes in MDA-MB-231 cells; test: RT-PCR re-expression of silenced tumor suppressor genes in MDA-MB-231 cells; assay type: cell-based, human; conditions: MDA-MB-231 cells
Protocol: The panels of FIG. 2 are as follows. […] MDA-MB-231 cells were treated with 15 mM NIA or 300 μM SPT for 21 hours, RNA was isolated, and RT-PCR was performed with intron-spanning primers specific for the indicated genes. Control samples in which no reverse transcriptase was added were analyzed separately, and all were negative for amplification of the indicated genes. […] MDA-MB-231 cells were treated with either 50 nM Aza (+), 100 μM SPT (+) or with both Aza and SPT (++), and 34 hours later, RT-PCR was performed for the indicated genes as described in FIG. 2(A). […] MDA-MB-231 cells were treated with either 0, 50, 100, or 120 μM SPT alone for 34 hours, or the treatment was followed by treatment with 300 nM TSA for 3 hours prior to RNA isolation and RT-PCR analysis. […] MDA-MB-231 cells were infected with low titers of virus for shRNA specific for SIRT1. Aza (100 nM) was added 24 hours prior to RNA isolation, and RT-PCR analysis was performed for the genes SFRP 1, SFRP2, and GAPDH as described in FIG. 2(A). […] As shown in the left panel, MDA-MB-231 cells were infected with a control (vec) or mutant SIRT1 virus (HY), and RT-PCR was performed as described in FIG. 2(A). MDA-MB-231 cells were infected with low titers of pBabe or pBabe-SIRT1H363Y retrovirus and subsequently treated with 100 nM Aza for 24 hours or with 300 nM TSA for 3 hours prior to harvest, and RT-PCR was performed.
as §1, §2

[5] = tested on: SFRP1 and SFRP2 genes in MCF7 cells; test: RT-PCR re-expression of silenced tumor suppressor genes in MCF7 cells; assay type: cell-based, human
Protocol: as §1, §2

SIRT1 [6] = test: Western blot of SIRT1 protein after retroviral shRNA infection; assay type: cell-based, human; conditions: MDA-MB-231 cells
Protocol: as §1, §2

[7] = tested on: SFRP1, SFRP2, GATA4 promoter methylation in MDA-MB-231 cells; test: Promoter DNA methylation by bisulfite sequencing and MSP; assay type: cell-based, human; conditions: MDA-MB-231 cells stably infected
From the text: The panels of FIG. 3 are as follows. […] Parallel samples analyzed in FIG. 1D were subjected to bisulfite sequencing of the SFRP1 promoter from MDA-MB-231 cells stably infected with control vector or RNAi-2 or RNAi-3 retrovirus. Open circles indicate unmethylated cytosines, and closed circles indicate methylated cytosines. Numbers at the bottom show the position of cytosines relative to the transcription start site, which is at position 0, and those with a minus sign (−) are upstream from this start site. The region sequenced encompasses the CpG island in which methylation status correlates with gene expression status. […] From left to right: (−) PCR Ctrl indicates H2O only; (−) BS ctrl indicates bisulfite-treated H20; (+) M ctrl indicates the cell line in which SFRP1 is partially methylated and SFRP2 and GATA4 are fully methylated; and (+) U ctrl indicates the Tera-2 cell line in which each gene is unmethylated. All remaining lanes are for MDA-MB-231. From left to right: Aza indicates 1 μM Aza (24 hours) treatment; Ctrl indicates empty vector infection; RNAi-2 indicates shRNA-2 infection alone; RNAi-3 indicates shRNA-3 infection alone; Aza indicates 1 μM Aza (24 hours treatment of control cells; Ctrl indicates empty vector infection+vehicle; RNAi-2 indicates shRNA-2 infection+5 mM NIA treatment; and RNAi-3 indicates shRNA-3 infection+5 mM NIA treatment.
MSP and bisulfite sequencing. […]

Question: How did the “SFRP1 RT-PCR specific band” value [1] turn out when NC(=O)[C@@H]1CCCc2c1[nH]c1ccc(Cl)cc21 [(R)-6-chloro-2,3,4,9-tetrahydro-1H-carbazole-1-carboxamide] was run?
Answer: Its value is “produces no specific band”.

Question: And the “inhibition of SIRT1 deactylase activity” value (SIRT1 [2])?
Answer: Its value is “inactive”.

Question: How did the “transcriptional re-activation of SFRP1 and 2 genes” value [3] turn out when NC(=O)[C@H]1CCCc2c1[nH]c1ccc(Cl)cc21 [(S)-6-chloro-2,3,4,9-tetrahydro-1H-carbazole-1-carboxamide] was run?
Answer: Its value is “the same effects have been achieved”.

Question: What about the “SFRP1 expression compared with 1 μM deoxy-aza-cytidine (Aza)” value ([1]; RT-PCR) of the same molecule?
Answer: The value was “not as strong”.

Question: What about the “SFRP1 expression compared with 300 μM splitomycin or 20 mM nicotinamide, alone or in combination” value ([1]; RT-PCR) of the same molecule?
Answer: Its value is “stronger”.

Question: What about the “SFRP1 RT-PCR specific band” value [1] of the same molecule?
Answer: Its value is “produce the band at both time points”.

Question: And the “inhibition of SIRT1 deactylase activity” value (SIRT1 [2])?
Answer: Its value is “potent inhibition”.

Question: What does the source list for NC(=O)c1cccnc1 [NIA, nicotinamide, reference compound]?
Answer: re-expression of epigenetically silenced, hypermethylated TSGs incl. CRBP1 ([4]; 15 mM NIA or 300 μM SPT for 21 hours): could cause the re-expression; re-expression of epigenetically silenced, hypermethylated TSGs ([5]; sirtuin inhibitors, data not shown): could cause the re-expression

Question: What does the source list for “RNAi-2: shRNA targeting SIRT1 mRNA, sequence GGCCACGGATAGGTCCATA, NM_012238 position 589”?
Answer: reduction of SIRT1 protein (knockdown) (SIRT1 [6]): very effective in reducing protein levels; SFRP1 promoter methylation profile (bisulfite sequencing) [7]: without changes in the methylation profile; gene re-expression of SFRP1, SFRP2 and E-cadherin ([4]; shRNA retroviral infection, RT-PCR): led to gene re-expression

B1: SIRT1H363Y: catalytically inactive, dominant negative inhibitor of SIRT1, expressed through retroviral infection (protein, UniProt Q96EB6 2-747, looked up, variant H363Y)
NAD-dependent protein …: ADEAALALQPGGSPSAAGADREAASSPAGEPLRKRPRRDGPGLERSPGEPGGAAPEREVPAAARGCPGAAAAALWREAEAEAAAAGGEQEAQATAAAGEGDNGPGLQGPSREPPLADNLYDEDDDDEGEEEEEAAAAAIGYRDNLLFGDEIITNGFHSCESDEEDRASHASSSDWTPRPRIGPYTFVQQHLMIGTDPRTILKDLLPETIPPPELDDMTLWQIVINILSEPPKRKKRKDINTIEDAVKLLQECKKIIVLTGAGVSVSCGIPDFRSRDGIYARLAVDFPDLPDPQAMFDIEYFRKDPRPFFKFAKEIYPGQFQPSLCHKFIALSDKEGKLLRNYTQNIDTLEQVAGIQRIIQCYGSFATASCLICKYKVDCEAVRGDIFNQVVPRCPRCPADEPLAIMKPEIVFFGENLPEQFHRAMKYDKDEVDLLIVIGSSLKVRPVALIPSSIPHEVPQILINREPLPHLHFDVELLGDCDVIINELCHRLGGEYAKLCCNPVKLSEITEKPPRTQKELAYLSELPPTPLHVSEDSSSPERTSPPDSSVIVTLLDQAAKSNDDLDVSESKGCMEEKPQEVQTSRNVESIAEQMENPDLKNVGSSTGEKNERTSVAGTVRKCWPNRVAKEQISRRLDGNQYLFLPPNRYIFHGAEVYSDSEDDVLSSSSCGSNSDSGTCQSPSLEEPMEDESEIEEFYNGLEDEPDVPERAGGAGFGTDGDDQEAINEAISVKQEVTDMNYPSNKS
Question: What does the source list for B1?
Answer: re-expression of SFRP1 and SFRP2 ([4]; dominant negative expressed through retroviral infection): re-expression of SFRP1 and SFRP2; reactivation of SFRP1 (GATA-5 and SFRP2 data not shown), combined with Aza ([4]; low titers of retrovirus, 100 nM Aza for 24 hours): synergistic reactivation of SFRP1; reactivation of SFRP1 (GATA-5 and SFRP2 data not shown), combined with TSA ([4]; low titers of retrovirus, 300 nM TSA for 3 hours): synergistic reactivation of SFRP1; gene re-expression of SFRP1 and SFRP2 ([5]; retroviral infection, RT-PCR): re-expression of SFRP1 and SFRP2
